Data set [1] can be described thus: Storage stability of staining compound solution in DMSO. In kind it is physicochemical. Conditions: 10 ng/mL in DMSO, closed glass container, normal temperature, 1 month; rate of change of absorbance and fluorescence intensity. As to the method: A 10 ng/mL solution of each of the staining compounds of Labelled Examples 1 to 78 and Labelled Comparative Examples 1 and 2 in DMSO was prepared, charged into a well-closed container made of glass, and left to stand still at normal temperature for 1 month. The absorbance and the fluorescence intensity at the time of the start of a storage stability test were measured at a given wavelength, and their rates of change were examined (+++: rates of change of the absorbance and the fluorescence intensity are less than 5%, and thus, the storage stability is highly excellent; ++: rates of change of the absorbance and fluorescence intensity are 5 to 15%, and thus, the storage stability is excellent; and −: rates of change of the absorbance and fluorescence intensity are more than 15%, and thus, the storage stability is poor).

Another data set deals with Zebrafish juveniles. Description: In vivo labelling of Zebrafish juveniles with probe for biological specimen. Conditions: 1 hour; for Site(s) to be labelled: 10 ng/mL in water, stereoscopic microscope; for Fluorescence sensitivity / Staining property: 10 ng/mL; for Fluorescence sensitivity: fluorescence intensity visually evaluated; for Staining property: visually evaluated. Further details: key to Staining property: +++: stained; −: no stained; key to Fluorescence sensitivity: +++: strongly observed; ++: moderately observed; +: weakly observed; −: no stained. As for the experimental part:
Five juveniles of Zebrafish were put into one well of a well plate together with rearing water. After rearing water had been discharged, 1 mL of distilled water was added to the well, and a solution of a staining compound (1) in DMSO was further added thereto so as to achieve a concentration of 10 ng/mL, followed by gentle stirring (pipetting). Further, Egg Water was prepared by dissolving artificial seawater SEALIFE (manufactured by Marinetech Co., Ltd.) in distilled water at a concentration of 60 mg/L. After the whole had been left to stand for 1 hour, distilled water in the well was discharged and replaced by 1 mL of fresh Egg Water. In addition, such an operation that Egg Water was discharged and replaced by 1 mL of fresh Egg Water was repeated twice. One of the juveniles was taken out from the well onto a dish, supplemented with 100 μL of a 3% methylcellulose aqueous solution to fix the movement of the juvenile, and photographed with a stereoscopic microscope (MZ10F: manufactured by Leica Microsystems K.K.).
The same operation as that in Example 1 was performed except that the staining compound (1) used in Example 1 was changed to any one of the staining compounds described in Table 1.
The same operation as that in Example 1 was performed except that the staining compound (1) used in Example 1 was changed to any one of indocyanine green (ICG) and fluorescein.
The staining property of each of the staining compounds of Labelled Examples 1 to 78 and Labelled Comparative Examples 1 and 2 was visually evaluated (+++: stained and −: no stained).
The fluorescence intensity of each of the staining compounds of Labelled Examples 1 to 78 and Labelled Comparative Examples 1 and 2 was visually evaluated (+++: strongly observed, ++: moderately observed, +: weakly observed, and −: no stained).

Data set [2] can be described thus: Excitation and fluorescence emission wavelength measurement. In kind it is physicochemical. Further details: Stokes shift (λem − λex): unit not given here. Conditions: aqueous solution: 10 mg/mL solution in DMSO diluted 500-fold with purified water. As for the experimental part:
It should be noted that the excitation wavelength and the fluorescence emission wavelength of the staining compound were determined by measuring an aqueous solution, which had been obtained by diluting 500-fold a 10 mg/mL solution of the staining compound in DMSO with purified water, with a fluorescence spectrophotometer FL 4500 manufactured by Hitachi High-Technologies Corporation.

Results on 13 molecules are retold here after patent US9801960B2, “Probe for a biological specimen and labelling method and screening method using the probe” (CANON KABUSHIKI KAISHA, priority 2008, dated 2017).

Consider `O=C(O)CN1C(=O)/C(=C\c2ccc3c(c2)C2CCCC2N3c2ccccc2)SC1=S` (stereo not shown) [Dye 1], for which the Storage stability result in data set [1] was “+++ (rates of change of the absorbance and the fluorescence intensity are less than 5%, and thus, the storage stability is highly excellent)”. Also, in the data set with Zebrafish juveniles, the “Site(s) to be labelled” value is “blood vessel, gallbladder, and gastrointestinal”; the Fluorescence sensitivity result is reported as “+++”; the Staining property result was “+++”. In data set [2], the Excitation wavelength λex was 531 nm, the Fluorescence emission wavelength λem stood at 633 nm and the “Stokes shift (λem − λex)” value came to 102.
For `CCN1C(=O)/C(=c2/s/c(=C/c3ccc4c(c3)C3CCCC3N4CC)c(=O)n2CC(=O)O)SC1=S` (stereo not shown) [Dye 110], the Storage stability result in data set [1] was “+++ (rates of change of the absorbance and the fluorescence intensity are less than 5%, and thus, the storage stability is highly excellent)”. Moreover, in the data set with Zebrafish juveniles, the “Site(s) to be labelled” value is recorded as “blood vessel”, the Fluorescence sensitivity entry is “+++” and the Staining property entry is recorded as “+++”. In addition, in data set [2], the Excitation wavelength λex came out at 623 nm, the Fluorescence emission wavelength λem stood at 671 nm and the “Stokes shift (λem − λex)” value stood at 48.
Take `COc1ccc(N2c3ccc(/C=C4/SC(=S)N(CCC(=O)O)C4=O)cc3C3CCCC32)cc1` (stereo not shown) [Dye 127]: the Storage stability result in data set [1] was “+++ (rates of change of the absorbance and the fluorescence intensity are less than 5%, and thus, the storage stability is highly excellent)”. Also, in the data set on Zebrafish juveniles, the “Site(s) to be labelled” value was “blood vessel, liver, and gastrointestinal tract”; the Fluorescence sensitivity entry was “+++”; the Staining property result is reported as “+++”. Besides, in data set [2], the Excitation wavelength λex was found to be 564 nm, the Fluorescence emission wavelength λem is 651 nm and the “Stokes shift (λem − λex)” value was 87.
In the case of `C=CCN1C(=O)/C(=c2\s/c(=C/c3ccc4c(c3)C3CCCC3N4c3ccc(C=C(c4ccccc4)c4ccccc4)cc3)c(=O)n2CC(=O)OCC)SC1=S` (stereo not shown) [Dye 69], the Storage stability result in data set [1] was “+++ (rates of change of the absorbance and the fluorescence intensity are less than 5%, and thus, the storage stability is highly excellent)”. In the data set with Zebrafish juveniles, the “Site(s) to be labelled” value was “gastrointestinal tract”, the Fluorescence sensitivity entry is reported as “+++” and the Staining property entry was “+++”. In addition, in data set [2], the Excitation wavelength λex was found to be 600 nm, the Fluorescence emission wavelength λem is 656 nm and the “Stokes shift (λem − λex)” value is 56.
Take `CCN1C(=O)/C(=c2\s/c(=C/c3ccc4c(c3)C3CCCC3N4c3ccc(C=C(c4ccccc4)c4ccccc4)cc3)c(=O)n2CC(=O)O)SC1=S` (stereo not shown) [Dye 103]: the Storage stability result in data set [1] was “+++ (rates of change of the absorbance and the fluorescence intensity are less than 5%, and thus, the storage stability is highly excellent)”. Moreover, in the data set on Zebrafish juveniles, the “Site(s) to be labelled” value is “gastrointestinal tract”, the Fluorescence sensitivity entry is given as “+++” and the Staining property entry is listed as “+++”. In addition, in data set [2], the Excitation wavelength λex was 567 nm, the Fluorescence emission wavelength λem came out at 702 nm and the “Stokes shift (λem − λex)” value is given as 135.
As to `N#C/C(=C\c1ccc2c(c1)C1CCCC1N2c1ccccc1)C(=O)O` (stereo not shown) [Dye 105], in data set [1], the Storage stability entry is “+++ (rates of change of the absorbance and the fluorescence intensity are less than 5%, and thus, the storage stability is highly excellent)”. In the data set on Zebrafish juveniles, the “Site(s) to be labelled” value was “liver and gastrointestinal tract”; the Fluorescence sensitivity entry is on record as “++”; the Staining property result is listed as “+++”. For the same molecule, in data set [2], the Excitation wavelength λex is 451 nm, the Fluorescence emission wavelength λem was found to be 530 nm and the “Stokes shift (λem − λex)” value came out at 79.
Turning to `O=C(O)C[n+]1c(/C=C/c2ccc3c(c2)C2CCCC2N3Cc2ccccc2)sc2ccccc21` (stereo not shown) [Dye 24], the Storage stability result in data set [1] was “+++ (rates of change of the absorbance and the fluorescence intensity are less than 5%, and thus, the storage stability is highly excellent)”. Besides, in the data set on Zebrafish juveniles, the “Site(s) to be labelled” value is “nose”, the Fluorescence sensitivity result is on record as “+++” and the Staining property result is “+++”. For the same molecule, in data set [2], the Excitation wavelength λex was 566 nm, the Fluorescence emission wavelength λem turned out to be 611 nm and the “Stokes shift (λem − λex)” value was determined as 45.
Take `CSc1ccc(N2c3ccc(/C=C(/C#N)C(=O)O)cc3C3CCCC32)cc1` (stereo not shown) [Dye 134]: the Storage stability entry in data set [1] was “+++ (rates of change of the absorbance and the fluorescence intensity are less than 5%, and thus, the storage stability is highly excellent)”. In the data set on Zebrafish juveniles, the “Site(s) to be labelled” value is “blood vessel”, the Fluorescence sensitivity entry is recorded as “+++” and the Staining property entry is “+++”. Also, in data set [2], the Excitation wavelength λex turned out to be 440 nm, the Fluorescence emission wavelength λem turned out to be 600 nm and the “Stokes shift (λem − λex)” value came to 160.
`O=C(O)CCN1C(=O)/C(=C\c2cc(Br)c3c(c2)C2CCCC2N3c2ccc(Br)cc2)SC1=S` (stereo not shown) [Dye 29]: the Storage stability result in data set [1] is “+++ (rates of change of the absorbance and the fluorescence intensity are less than 5%, and thus, the storage stability is highly excellent)”. In the data set on Zebrafish juveniles, the “Site(s) to be labelled” value was “blood vessel, gallbladder, and liver”; the Fluorescence sensitivity entry is “+++”; the Staining property result is reported as “+++”. For the same molecule, in data set [2], the Excitation wavelength λex amounted to 518 nm, the Fluorescence emission wavelength λem amounted to 575 nm and the “Stokes shift (λem − λex)” value amounted to 57.
In the case of `O=C(O)Cn1c(=O)/c(=C\c2ccc3c(c2)C2CCCC2N3c2ccccc2)s/c1=C1/SC(=S)N(Cc2ccccc2)C1=O` (stereo not shown) [Dye 66], the Storage stability entry in data set [1] is “++ (rates of change of the absorbance and fluorescence intensity are 5 to 15%, and thus, the storage stability is excellent)”. Besides, in the data set on Zebrafish juveniles, the “Site(s) to be labelled” value is “blood vessel, nose, and gastrointestinal tract”; the Fluorescence sensitivity result is recorded as “++”; the Staining property result is on record as “+++”. Besides, in data set [2], the Excitation wavelength λex worked out at 586 nm, the Fluorescence emission wavelength λem turned out to be 661 nm and the “Stokes shift (λem − λex)” value is 75.
In the case of `O=C(O)Cn1c(=O)/c(=C\c2ccc3c(c2)C2CCCC2N3Cc2ccccc2)s/c1=C1/SC(=S)N(Cc2ccccc2)C1=O` (stereo not shown) [Dye 11], the Storage stability entry in data set [1] was “+++ (rates of change of the absorbance and the fluorescence intensity are less than 5%, and thus, the storage stability is highly excellent)”. In the data set on Zebrafish juveniles, the “Site(s) to be labelled” value was “blood vessel, liver, and gastrointestinal tract”; the Fluorescence sensitivity result is “++”; the Staining property result is “+++”. Besides, in data set [2], the Excitation wavelength λex came to 588 nm, the Fluorescence emission wavelength λem came to 668 nm and the “Stokes shift (λem − λex)” value came to 80.
With `COc1ccc(N2c3ccc(/C=C4/SC(=S)N(CC(=O)O)C4=O)cc3C3CCCC32)cc1` (stereo not shown) [Dye 37], the Storage stability entry in data set [1] was “++ (rates of change of the absorbance and fluorescence intensity are 5 to 15%, and thus, the storage stability is excellent)”. For the same molecule, in the data set on Zebrafish juveniles, the “Site(s) to be labelled” value is reported as “gallbladder”, the Fluorescence sensitivity result was “+++” and the Staining property result was “+++”. Also, in data set [2], the Excitation wavelength λex turned out to be 571 nm, the Fluorescence emission wavelength λem was found to be 648 nm and the “Stokes shift (λem − λex)” value is 77.
Turning to `COc1ccc(N2c3ccc(/C=C/c4sc5ccccc5[n+]4CCC(=O)O)cc3C3CCCC32)cc1` (stereo not shown) [Dye 72], the Storage stability entry in data set [1] is “+++ (rates of change of the absorbance and the fluorescence intensity are less than 5%, and thus, the storage stability is highly excellent)”. In addition, in the data set on Zebrafish juveniles, the “Site(s) to be labelled” value is “gallbladder and gastrointestinal tract”; the Fluorescence sensitivity result was “+++”; the Staining property entry is recorded as “+++”. Besides, in data set [2], the Excitation wavelength λex was 583 nm, the Fluorescence emission wavelength λem is 668 nm and the “Stokes shift (λem − λex)” value came to 85.
